Experimental data published in article PMC12441834, “Highly Potent and Subtype-Selective Sperm-Specific Potassium Channel SLO3 Inhibitors Display High Tissue Exposure in the Murine Female Reproductive Tract” (ACS Pharmacology & Translational Science, 2025).
Like-named read-outs stand apart in the source and are kept apart here.

Legend:
[1] = target: Cannabinoid CB1 (Homo sapiens, UniProt P21554); experiment: LeadProfilingScreen radioligand binding
[2] = target: Bradykinin B2 (Homo sapiens, UniProt P30411); experiment: LeadProfilingScreen radioligand binding
Chain of Bradykinin B2 (P30411 whole entry): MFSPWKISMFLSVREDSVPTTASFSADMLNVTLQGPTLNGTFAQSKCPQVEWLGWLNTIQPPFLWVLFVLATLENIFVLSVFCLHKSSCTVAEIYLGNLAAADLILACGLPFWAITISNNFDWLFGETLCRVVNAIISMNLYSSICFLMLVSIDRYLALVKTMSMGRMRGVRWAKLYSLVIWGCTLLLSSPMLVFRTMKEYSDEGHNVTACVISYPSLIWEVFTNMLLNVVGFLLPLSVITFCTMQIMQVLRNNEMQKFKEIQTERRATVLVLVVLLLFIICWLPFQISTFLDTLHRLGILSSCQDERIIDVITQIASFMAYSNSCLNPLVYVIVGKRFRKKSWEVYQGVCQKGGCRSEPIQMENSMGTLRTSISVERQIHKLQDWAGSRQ

[3] = target: T1, mouse SLO3 (KSper currents in mouse sperm) (Mus musculus, UniProt O54982); experiment: Whole-cell recording of KSper currents in mouse sperm; format: cell-based; details: for Hill coefficient: mouse sperm KSper currents; for IC50: whole-cell recordings from mouse sperm
T1 construct: sperm were isolated from the corpus epididymis by swim-out; endogenous in cells; host or cells: C57Bl/6 mouse corpus epididymal sperm
T1 sequence (O54982 1-1121): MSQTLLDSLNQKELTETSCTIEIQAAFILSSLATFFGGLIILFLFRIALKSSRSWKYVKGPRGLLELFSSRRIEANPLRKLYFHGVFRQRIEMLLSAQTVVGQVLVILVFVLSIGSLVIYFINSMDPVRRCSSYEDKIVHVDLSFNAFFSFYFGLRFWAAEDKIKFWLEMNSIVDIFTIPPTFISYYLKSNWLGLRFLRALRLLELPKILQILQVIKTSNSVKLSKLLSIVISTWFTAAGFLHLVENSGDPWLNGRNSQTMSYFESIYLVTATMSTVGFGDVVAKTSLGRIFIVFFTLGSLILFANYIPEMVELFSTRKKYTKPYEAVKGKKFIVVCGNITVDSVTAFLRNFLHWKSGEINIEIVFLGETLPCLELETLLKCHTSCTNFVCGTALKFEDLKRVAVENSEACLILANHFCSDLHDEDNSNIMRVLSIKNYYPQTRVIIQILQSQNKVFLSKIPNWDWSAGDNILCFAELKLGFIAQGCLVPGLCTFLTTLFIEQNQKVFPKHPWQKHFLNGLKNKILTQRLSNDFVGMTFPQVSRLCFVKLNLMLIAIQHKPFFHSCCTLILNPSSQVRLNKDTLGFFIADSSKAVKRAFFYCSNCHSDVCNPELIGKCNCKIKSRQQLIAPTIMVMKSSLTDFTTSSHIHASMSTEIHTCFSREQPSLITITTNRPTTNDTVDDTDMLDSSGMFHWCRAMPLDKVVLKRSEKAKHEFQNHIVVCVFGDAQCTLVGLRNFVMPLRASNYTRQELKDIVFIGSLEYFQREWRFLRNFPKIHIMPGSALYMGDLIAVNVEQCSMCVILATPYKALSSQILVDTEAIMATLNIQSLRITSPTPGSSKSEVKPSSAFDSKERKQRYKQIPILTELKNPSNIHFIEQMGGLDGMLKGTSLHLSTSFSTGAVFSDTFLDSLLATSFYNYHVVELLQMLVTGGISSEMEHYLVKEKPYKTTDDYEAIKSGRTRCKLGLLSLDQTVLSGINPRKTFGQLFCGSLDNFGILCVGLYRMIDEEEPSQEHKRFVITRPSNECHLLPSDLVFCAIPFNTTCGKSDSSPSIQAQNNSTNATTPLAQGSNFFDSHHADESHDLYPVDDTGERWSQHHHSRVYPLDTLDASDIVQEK
T1 sequence (Q5M8M9 24-314 partner): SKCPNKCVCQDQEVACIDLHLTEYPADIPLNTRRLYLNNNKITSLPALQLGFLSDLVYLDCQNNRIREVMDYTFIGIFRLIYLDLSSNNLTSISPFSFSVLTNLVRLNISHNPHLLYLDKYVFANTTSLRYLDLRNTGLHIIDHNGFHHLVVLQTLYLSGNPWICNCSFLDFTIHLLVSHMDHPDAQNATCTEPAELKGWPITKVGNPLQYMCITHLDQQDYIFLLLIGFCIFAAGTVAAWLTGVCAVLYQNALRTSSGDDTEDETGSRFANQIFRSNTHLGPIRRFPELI
Procedure: Electrophysiology: C57Bl/6 sexually mature male mice (60–90 days old) were euthanized by inhalation of CO2 followed by cervical dislocation and sperm were isolated from the corpus epididymis by swim-out. Then the sperm suspension was collected and centrifuged (500×g, 6 min) twice to purify the sperm. HEPES-buffered saline (HS) was used for sperm swim-out and storage. It contained (in mM): 135 NaCl, 5 KCl, 1 MgSO4, 2 CaCl2, 20 HEPES, 5 glucose, 10 lactic acid, and 1 Na·pyruvate at pH 7.4. The sperm suspension was kept at room temperature (∼22 °C) for 4–6 h until recording. All animal husbandry and experimental procedures were approved by the Animal Studies Committee of the Washington University in St. Louis School of Medicine.
Voltage-clamp recordings were performed using an Axopatch 200B amplifier (Molecular Devices). Recordings were filtered at 5 kHz with the internal filter of the amplifier and digitized at 50 kHz using a Digidata 1550B digitizer (Molecular Devices). Recording pipettes were pulled from borosilicate glass with tip resistances of 3–8 MΩ after filling with pipette solution containing (in mM): 140 KMES, 1 EGTA, 10 HEPES, pH 7.4 with KOH. Bath solutions contained (in mM): 135 NaMES, 5 KMES, 2 MgCl2, and 10 HEPES, pH 7.4 with NaOH. Experiments were performed at room temperature (∼22 °C). Whole-cell currents were evoked from a holding potential of −60 mV in steps from −80 to +100 mV in 10 mV increments. Test compounds were prepared daily from a 10 mM stock solution (in DMSO).
For mouse sperm recordings, the pipettes were fire-polished with Microforge MF-830 (Narishige, Japan) to reach tip resistances of 8–12 MΩ. The giga-ohm (GΩ) seals were formed between the glass micropipette and the sperm cytoplasmic droplet in HS solution. Break-in to whole-cell mode was achieved by applying short (1–5 ms) voltage pulses of 488–888 mV.
Data were analyzed with a pClamp 10.6 (Molecular Devices). VU6047606 and VU6032735 inhibition dose–response relationships were fit by the Hill equation in OriginPro 7.5 (OriginLab Corporation): R=1/1+(C/IC50)^n+Ioff , in which R is fractional unblock, C is compound concentration, IC50 is the half inhibition concentration, n is the Hill coefficient, and I off is an offset item for leak current. Error bars in the figures represent the SDs. Each data point is averaged from at least 5 measurements. Curve-fitting results are reported as the fitted values with standard error, which was estimated by OriginPro according to the Error Propagation formula.

[4] = target: Neuropeptide Y Y2 (Homo sapiens, UniProt P49146); experiment: LeadProfilingScreen radioligand binding
Chain of Neuropeptide Y Y2 (P49146 whole entry): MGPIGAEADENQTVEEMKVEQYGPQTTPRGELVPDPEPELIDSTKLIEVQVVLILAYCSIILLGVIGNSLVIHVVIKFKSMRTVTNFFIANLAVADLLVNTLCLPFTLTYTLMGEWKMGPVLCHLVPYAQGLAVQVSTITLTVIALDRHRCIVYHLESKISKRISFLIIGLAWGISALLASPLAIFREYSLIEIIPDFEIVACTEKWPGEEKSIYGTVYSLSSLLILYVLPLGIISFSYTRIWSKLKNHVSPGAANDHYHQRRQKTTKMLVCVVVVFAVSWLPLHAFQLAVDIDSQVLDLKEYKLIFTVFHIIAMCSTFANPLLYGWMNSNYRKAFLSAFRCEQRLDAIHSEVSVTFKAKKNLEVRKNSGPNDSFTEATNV

[5] = target: Calcium Channel N-Type (Rattus norvegicus, UniProt Q02294); experiment: LeadProfilingScreen radioligand binding
Chain of Calcium Channel N-Type (Q02294 whole entry): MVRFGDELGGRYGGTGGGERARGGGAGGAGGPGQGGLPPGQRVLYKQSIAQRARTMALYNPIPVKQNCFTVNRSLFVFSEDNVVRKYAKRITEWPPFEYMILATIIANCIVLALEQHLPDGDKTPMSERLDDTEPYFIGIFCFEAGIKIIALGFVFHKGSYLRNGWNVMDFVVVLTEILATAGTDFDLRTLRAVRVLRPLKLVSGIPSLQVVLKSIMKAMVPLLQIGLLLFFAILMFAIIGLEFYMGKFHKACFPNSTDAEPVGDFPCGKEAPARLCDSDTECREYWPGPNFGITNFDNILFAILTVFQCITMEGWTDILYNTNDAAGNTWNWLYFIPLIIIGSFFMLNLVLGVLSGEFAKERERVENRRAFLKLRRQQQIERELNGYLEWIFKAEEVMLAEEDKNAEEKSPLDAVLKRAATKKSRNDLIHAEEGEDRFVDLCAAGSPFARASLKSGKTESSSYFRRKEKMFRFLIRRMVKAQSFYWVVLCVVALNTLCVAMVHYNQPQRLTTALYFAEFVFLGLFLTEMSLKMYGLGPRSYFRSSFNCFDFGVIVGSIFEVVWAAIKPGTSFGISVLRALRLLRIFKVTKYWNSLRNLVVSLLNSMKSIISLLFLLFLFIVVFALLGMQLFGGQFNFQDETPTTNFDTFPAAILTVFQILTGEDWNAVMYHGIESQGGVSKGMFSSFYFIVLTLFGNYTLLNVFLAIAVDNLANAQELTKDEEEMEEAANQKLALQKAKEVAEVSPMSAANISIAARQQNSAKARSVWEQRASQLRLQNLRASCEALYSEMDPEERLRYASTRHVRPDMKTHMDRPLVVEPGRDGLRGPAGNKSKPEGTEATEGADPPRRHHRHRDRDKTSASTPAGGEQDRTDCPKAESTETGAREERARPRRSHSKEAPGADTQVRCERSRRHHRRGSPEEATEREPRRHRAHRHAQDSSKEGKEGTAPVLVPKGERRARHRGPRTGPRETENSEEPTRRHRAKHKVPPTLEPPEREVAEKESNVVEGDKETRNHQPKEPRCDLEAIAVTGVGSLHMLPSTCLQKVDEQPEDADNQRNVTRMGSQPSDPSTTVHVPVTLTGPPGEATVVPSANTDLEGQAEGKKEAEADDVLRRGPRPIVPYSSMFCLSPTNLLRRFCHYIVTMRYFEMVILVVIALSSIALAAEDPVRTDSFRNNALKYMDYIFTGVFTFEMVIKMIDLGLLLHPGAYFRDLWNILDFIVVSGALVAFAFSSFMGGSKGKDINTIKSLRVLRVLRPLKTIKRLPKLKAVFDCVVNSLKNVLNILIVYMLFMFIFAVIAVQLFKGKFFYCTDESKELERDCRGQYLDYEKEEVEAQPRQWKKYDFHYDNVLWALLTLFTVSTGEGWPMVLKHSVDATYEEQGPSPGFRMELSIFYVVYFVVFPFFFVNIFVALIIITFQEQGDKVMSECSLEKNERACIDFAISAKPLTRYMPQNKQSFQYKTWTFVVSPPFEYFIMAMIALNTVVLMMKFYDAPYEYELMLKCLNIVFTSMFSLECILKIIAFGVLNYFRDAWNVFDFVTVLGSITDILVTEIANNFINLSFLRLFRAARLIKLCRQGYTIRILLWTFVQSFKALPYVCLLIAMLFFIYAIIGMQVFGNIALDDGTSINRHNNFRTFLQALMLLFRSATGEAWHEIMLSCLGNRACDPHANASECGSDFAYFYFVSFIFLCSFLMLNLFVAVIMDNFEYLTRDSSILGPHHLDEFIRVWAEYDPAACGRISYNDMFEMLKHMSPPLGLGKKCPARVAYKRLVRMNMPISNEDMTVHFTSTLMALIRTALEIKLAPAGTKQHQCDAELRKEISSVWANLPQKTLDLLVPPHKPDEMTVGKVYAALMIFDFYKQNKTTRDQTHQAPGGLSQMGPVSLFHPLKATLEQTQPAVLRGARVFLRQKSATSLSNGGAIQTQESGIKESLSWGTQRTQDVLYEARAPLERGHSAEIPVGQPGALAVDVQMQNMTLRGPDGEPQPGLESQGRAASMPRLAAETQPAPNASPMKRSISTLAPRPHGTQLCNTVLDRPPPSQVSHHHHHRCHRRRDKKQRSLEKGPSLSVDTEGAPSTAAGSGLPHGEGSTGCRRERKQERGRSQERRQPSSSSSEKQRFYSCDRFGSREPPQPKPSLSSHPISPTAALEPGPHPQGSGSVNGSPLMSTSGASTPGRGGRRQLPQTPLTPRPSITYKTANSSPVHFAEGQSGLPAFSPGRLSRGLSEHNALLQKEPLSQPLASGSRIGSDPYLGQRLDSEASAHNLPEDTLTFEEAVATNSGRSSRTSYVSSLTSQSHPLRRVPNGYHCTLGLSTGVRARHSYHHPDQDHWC

[6] = target: Transporter, Norepinephrine (NET) (Homo sapiens, UniProt P23975); experiment: LeadProfilingScreen radioligand binding
Chain of Transporter, Norepinephrine (NET) (P23975 whole entry): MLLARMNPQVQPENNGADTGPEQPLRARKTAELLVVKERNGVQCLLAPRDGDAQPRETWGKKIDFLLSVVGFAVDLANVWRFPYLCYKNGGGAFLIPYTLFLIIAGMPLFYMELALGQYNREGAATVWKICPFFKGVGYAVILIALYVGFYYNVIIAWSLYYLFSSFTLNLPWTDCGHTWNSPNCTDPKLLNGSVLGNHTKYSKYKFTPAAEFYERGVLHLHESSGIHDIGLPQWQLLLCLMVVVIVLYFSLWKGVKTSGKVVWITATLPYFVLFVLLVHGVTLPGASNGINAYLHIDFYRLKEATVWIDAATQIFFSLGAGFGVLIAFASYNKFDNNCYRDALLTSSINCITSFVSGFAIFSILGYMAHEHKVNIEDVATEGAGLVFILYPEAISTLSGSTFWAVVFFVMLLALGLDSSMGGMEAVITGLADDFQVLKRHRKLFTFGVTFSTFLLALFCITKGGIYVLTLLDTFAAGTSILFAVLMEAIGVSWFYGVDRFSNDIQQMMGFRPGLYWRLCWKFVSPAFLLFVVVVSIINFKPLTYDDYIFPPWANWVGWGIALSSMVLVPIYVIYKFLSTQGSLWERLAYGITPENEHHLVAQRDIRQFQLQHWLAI

Chain of Cannabinoid CB1 (P21554 whole entry): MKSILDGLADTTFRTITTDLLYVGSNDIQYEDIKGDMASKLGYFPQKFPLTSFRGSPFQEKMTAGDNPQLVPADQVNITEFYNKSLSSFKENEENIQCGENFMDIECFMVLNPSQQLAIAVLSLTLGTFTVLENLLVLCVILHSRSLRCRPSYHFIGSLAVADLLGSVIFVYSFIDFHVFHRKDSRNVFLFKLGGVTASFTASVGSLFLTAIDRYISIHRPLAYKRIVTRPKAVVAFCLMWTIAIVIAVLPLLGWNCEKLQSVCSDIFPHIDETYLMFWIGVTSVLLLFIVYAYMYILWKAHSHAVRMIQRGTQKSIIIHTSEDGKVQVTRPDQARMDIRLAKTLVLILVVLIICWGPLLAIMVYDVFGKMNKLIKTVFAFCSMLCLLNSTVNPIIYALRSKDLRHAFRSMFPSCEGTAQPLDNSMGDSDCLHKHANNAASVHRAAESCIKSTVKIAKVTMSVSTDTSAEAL

Row | SMILES | inhibition at 10 µM [1] [%] | inhibition at 10 µM [2] [%] | Hill coefficient [3] | IC50 ([3]; currents at +100 mV, read-out: mSLO3 IC50 (mouse sperm KSper currents)) [µM] | inhibition at 10 µM [4] [%] | inhibition at 10 µM [5] [%] | inhibition at 10 µM [6] [%] | fold more potent than VU6047606 on mouse SLO3 currents ([3]; mouse sperm) [fold] | IC50 ([3]; read-out: mSLO3 IC50 (mouse sperm)) [µM]
1 | Cc1cc(Cl)cc2sc(O[C@H]3CCN(C(=O)CCCS(=O)(=O)c4cccc(Br)c4)C[C@H]3F)nc12 [VU6047606] | 27 | 4 | 1.02 ± 0.12 | 1.47 | 10 | -1 | 44 |  | 
2 | O=C(c1ccc(OCc2ccc(OC(F)(F)F)cc2)cc1)N1CCN(c2ccc(C(F)(F)F)cn2)CC1 [VU6032735] | 32 | -1 | 0.78 ± 0.07 |  | 3 | 2 | 30 | ~1.6 | 0.91
